# Data: PubChem BioAssay (NCI)
# Values joined by “and” are separate entries in the source; they are usually repeats but may differ in a detail not shown here. Identical values can stand only once.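 All cell lines were grown in 96-well plates and treated with compound for 48 hours. GI50 is the concentration that inhibits growth by half. TGI denotes the concentration required for complete inhibition of growth.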
# What was measured:
# Assay in all cases: growth of human tumour cells (NCI), 48 h
# [1] = tested on: A549 NSCLC
# [2] = tested on: BT-549 breast
# [3] = tested on: KM12 colon
# [4] = tested on: NCI-H460 lung
# [5] = tested on: PC-3 prostate
# [6] = tested on: SK-OV-3 ovarian
# [7] = tested on: SR leukemia
# [8] = tested on: UO-31 renal
# [9] = tested on: HCT-116 colon
# [10] = tested on: MALME-3M melanoma
Structure (SMILES),GI50 [1],TGI [1],GI50 [2] [µM],TGI [2] [µM],GI50 [3],TGI [3],GI50 [4],TGI [4],GI50 [5],TGI [5],GI50 [6] [µM],TGI [6],GI50 [7],TGI [7],GI50 [8] [µM],TGI [8],TGI [9],TGI [10],GI50 [9],GI50 [10]
COc1cc(OC)cc(-c2nc3sccn3c2/C=N/N=C(N)N)c1,10 µM,19.8 µM,6.87,14,3.13 µM,10.3 µM,13.3 µM,42.9 µM,9.23 µM,16.2 µM,7.28,15.5 µM,8.64 µM,16.1 µM,15.8,> 50 µM,,,,
COc1ccc2c3c(c(C(=O)O)oc13)CCC2,,> 100 µM,,,,> 100 µM,,> 100 µM,,,,> 100 µM,,> 100 µM,,> 100 µM,> 100 µM,> 100 µM,,
S=c1nc(C(c2ccccc2)c2ccccc2)[nH][nH]1,,> 100 µM,,,,> 100 µM,,> 100 µM,,,,> 100 µM,,,,> 100 µM,> 100 µM,> 100 µM,,
Cc1cc(C)nc(NS(=O)(=O)c2ccc(Nc3c4ccccc4nc4c(C(=O)Nc5ccc(S(=O)(=O)Nc6cc(C)on6)cc5)ccc(Cl)c34)cc2)n1,,,,,,37.1 µM,,61.3 µM,,,,> 100 µM,,53.8 µM,,45.3 µM,40.5 µM,86.5 µM,,
CC(N)Cc1ccc(Cl)cc1 (stereo not given),,> 100 µM,,,,> 100 µM,,> 100 µM,,,,> 100 µM,,> 100 µM,,> 100 µM,> 100 µM,> 100 µM,,
Cc1cc(Br)cc(C)c1NC(=O)C(=O)C(C(=O)c1ccncc1)C1OC(=O)c2ccccc21 (stereo not given),,> 100 µM,,,,> 100 µM,,> 100 µM,,,,> 100 µM,,> 100 µM,,> 100 µM,> 100 µM,> 100 µM,,
COc1cc2c(c(O)c1C)C(=O)CC(c1ccccc1)O2 (stereo not given),,> 100 µM,,,,> 100 µM,,> 10 µM,,,,> 100 µM,,,,> 100 µM,> 100 µM,> 100 µM,,
COC1CC(C)C(OC)c2cc(O)cc(c2O)NC(=O)/C(C)=C/C=C\C(C)C(OC(N)=O)/C(C)=C\C(C)C1OC (stereo not given),0.435 µM and 1.84 µM,27.6 µM and 21.1 µM,,,0.111 µM and 0.184 µM,1.9 µM and 2.83 µM,0.348 µM and 0.42 µM,18.4 µM and 8.56 µM,0.201 µM and 0.44 µM,16.4 µM and 8.51 µM,0.171,8.02 µM and 14.7 µM,0.191 µM and 0.11 µM,2 µM and 6.31 µM,8.32,17.4 µM and 15.6 µM,8.1 µM and 9.01 µM,4.89 µM and 7.39 µM,0.0642 µM and 0.571 µM,0.749 µM and 0.503 µM
Cc1c(NC(=O)CCl)c(=O)oc2c(C)c3occc(=O)c3cc12,,35 µM,,,,23.9 µM,,27.5 µM,,,,32.8 µM,,58 µM,,22.4 µM,25.9 µM,44.4 µM,,
CCC[CH2][Sn]([CH2]CCC)([CH2]CCC)[O]C(=O)C(OC(C)=O)c1ccccc1 (stereo not given),0.143 µM,0.309 µM,,,0.109 µM,0.23 µM,0.138 µM,0.28 µM,,,0.12,0.273 µM,,,0.157,0.292 µM,0.276 µM,0.274 µM,0.136 µM,0.143 µM
COc1cccc2c1C(=O)c1c(O)c3c(c(O)c1C2=O)C[C@@](O)(C(C)=O)C[C@@H]3OC1CC([N+]([O-])(Cc2ccccc2)Cc2ccccc2)C(O)C(C)O1 (stereo not given in full),,5.18 µM,,,,2.9 µM,,2.39 µM,,,,17.2 µM,,,,2.54 µM,,,,
NCCOCn1cc(Cc2cccc(OCc3ccccc3)c2)c(=O)[nH]c1=O,,> 100 µM,,,,> 100 µM,,> 100 µM,,,,> 100 µM,,,,> 100 µM,> 100 µM,,,
O=C1OC(c2ccccc2)(c2ccccc2)c2ccc3ccc(F)cc3c21,,> 100 µM,,,,> 100 µM,,> 100 µM,,,,> 100 µM,,> 100 µM,,> 100 µM,> 100 µM,> 100 µM,,
O=C1C=CC(=O)C2C1Cc1ccccc1C2c1ccccc1 (stereo not given),,> 100 µM,,,,> 100 µM,,81.4 µM,,,,> 100 µM,,59.1 µM,,> 100 µM,> 100 µM,> 100 µM,,
CCN(CC)CCC(=O)OC1C(C)=CC(C)C(=O)CC(C(C)CC2CCC(O)C(OC)C2)OC(=O)C2CCCCN2C(=O)C(=O)[C@@]2(O)OC(CCC2C)CC(OC)\C(C)=C/C=C/C=C/C(C)CC(C)C(=O)C1OC (stereo not given in full),,16.6 µM,,15.5,,21.2 µM,,23.8 µM,,22.4 µM,,19.4 µM,,,,,20.1 µM,18.8 µM,,
Cc1ccc(-c2c(C#N)[n+](=O)c3cc(F)c(F)cc3n2[O-])cc1,28.2 µM,86 µM,18.5,33.7,9.9 µM,28.3 µM,12.2 µM,30.3 µM,1.43 µM,3.35 µM,,,,,9.79,37.7 µM,5.21 µM,5.23 µM,1.23 µM,2.06 µM
O=S(=O)(c1ccccc1)c1nccs1,,> 100 µM,,,,> 100 µM,,> 100 µM,,,,> 100 µM,,> 100 µM,,> 100 µM,> 100 µM,,,
COc1cc2c3c(n(CCCCNC(=O)OC(C)(C)C)c(=O)c2cc1OC)-c1cc2c(cc1C3=O)OCO2,> 100 µM,> 100 µM,> 100,> 100,> 100 µM,> 100 µM,5.66 µM,> 100 µM,> 100 µM,> 100 µM,> 100,> 100 µM,,,> 100,> 100 µM,> 100 µM,> 100 µM,> 100 µM,> 100 µM
COc1cccc(Sc2ccc([N+](=O)[O-])c3no[n+]([O-])c23)c1,36.1 µM,> 100 µM,8.06,22.1,17.2 µM,33.5 µM,18.7 µM,40.8 µM,16.9 µM,> 54.5 µM,29.8,> 77.7 µM,,,2.27,7.74 µM,14.4 µM,15 µM,3.7 µM,4.67 µM
